US9126941B2, “Treatment of hyperproliferative disorders with diarylhydantoin compounds” (The Regents of the University of California, priority 2005, dated 2015)
Read-outs that look alike come from different tables or passages of the source.

Legend:
[1] = Ranking of compounds in tiers for utility in treating prostate cancer; details: assay not specified
Description: The placement of compounds into tiers was based on available data coupled with analytical judgment. Data considered included in vitro assays (AR response reporter system in LNCaP cell line, PSA level measurement, MTS mitochondrial assay) and in vivo experiments (tumor size measured directly or by emission induced by luciferase reporter gene, pharmacokinetic assays based on blood plasma levels). Not every compound was subjected to each assay. […] Judgment was applied in ranking compounds relative to each other for their utility in treating prostate cancer, in particular when ranking two compounds for which the same experiments were not performed. Characteristics considered in establishing the ranking include AR antagonism activity, lack of AR agonism in hormone refractory cells, prevention of tumor growth, tumor shrinkage, and pharmacokinetic behavior, with a longer residence time in blood being advantageous.

AR [2] = biological target: T1, AR (Homo sapiens, UniProt P10275); assay: cell-based; type: cell-based; details: for IC50 (nM) Reporter / Inhibitory activity on AR in reporter system: LNCaP-AR; for IC50 (nM) Reporter: 100 pM R1881, two days, No = did not inhibit AR response reporter; for Inhibitory activity on AR in reporter system: hormone refractory
T1 sequence (P10275 whole entry, looked up): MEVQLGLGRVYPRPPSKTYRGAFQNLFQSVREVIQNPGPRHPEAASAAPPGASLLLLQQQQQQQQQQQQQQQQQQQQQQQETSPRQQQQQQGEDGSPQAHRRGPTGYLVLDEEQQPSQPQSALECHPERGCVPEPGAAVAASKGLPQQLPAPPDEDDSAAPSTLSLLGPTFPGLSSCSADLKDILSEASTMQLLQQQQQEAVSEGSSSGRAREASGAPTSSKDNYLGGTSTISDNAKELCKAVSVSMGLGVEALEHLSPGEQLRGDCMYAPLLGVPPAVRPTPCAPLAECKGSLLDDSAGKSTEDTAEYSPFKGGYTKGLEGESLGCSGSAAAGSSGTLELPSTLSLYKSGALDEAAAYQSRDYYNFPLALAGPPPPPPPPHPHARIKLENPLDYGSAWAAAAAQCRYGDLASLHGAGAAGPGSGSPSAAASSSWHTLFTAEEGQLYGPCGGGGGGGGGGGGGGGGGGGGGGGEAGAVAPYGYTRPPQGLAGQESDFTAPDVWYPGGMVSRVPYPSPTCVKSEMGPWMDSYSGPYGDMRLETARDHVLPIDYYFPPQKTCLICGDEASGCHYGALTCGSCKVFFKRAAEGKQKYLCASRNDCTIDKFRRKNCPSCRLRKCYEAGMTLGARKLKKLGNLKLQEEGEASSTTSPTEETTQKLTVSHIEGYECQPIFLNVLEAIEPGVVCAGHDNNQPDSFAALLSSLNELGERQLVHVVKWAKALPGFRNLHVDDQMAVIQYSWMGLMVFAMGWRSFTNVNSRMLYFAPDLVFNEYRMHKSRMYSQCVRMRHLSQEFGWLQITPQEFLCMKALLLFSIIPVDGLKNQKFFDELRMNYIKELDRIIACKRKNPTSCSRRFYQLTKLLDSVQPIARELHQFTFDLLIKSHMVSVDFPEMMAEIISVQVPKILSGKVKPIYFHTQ
Description: The compounds were subjected to tests using an artificial AR response reporter system in a hormone refractory prostate cancer cell line. […] After two days of incubation, reporter activities were assayed.

AR [3] = biological target: T1, AR; assay: cell-based; type: cell-based
Description: It is well established that PSA levels are indicators of AR activities in prostate cancer. […] The LNCaP-AR cells are a line of lymph node carcinoma of prostate cells transduced with a plasmid that makes express androgen receptors. […] After four days incubation, secreted PSA levels were assayed using PSA ELISA kits (American Qualex, San Clemente, Calif.)

AR [4] = biological target: T1, AR; assay: cell-based; type: cell-based; details: for Agonistic activity, secreted PSA: AR over expressed LNCaP, absence of R1881; for fold induction at 0.1 µM / fold induction at 1 µM / fold induction at 10 µM: LNCaP; for fold induction at 0.1 µM: read-out: Fold induction of endogenous PSA, 0.1 μM; for fold induction at 1 µM: read-out: Fold induction of endogenous PSA, 1 μM; for fold induction at 10 µM: read-out: Fold induction of endogenous PSA, 10 μM
AR [5] = biological target: T1, AR; assay: cell-based; details: for Agonistic activity on AR, reporter: LN-AR, absence of R1881; for fold induction at 0.1 µM: read-out: Fold induction of AR response reporter, 0.1 μM; for fold induction at 1 µM: read-out: Fold induction of AR response reporter, 1 μM; for fold induction at 10 µM: read-out: Fold induction of AR response reporter, 10 μM
Text: Table 2 lists the agonistic activities of different compounds.

[6] = Pharmacokinetics in FVB mice, drug concentration by HPLC
Description: Mice were divided into groups of three for each time points. Two mice were not treated with drug and two other mice were treated with vehicle solution. […]
The drug was dissolved in a mixture 1:5:14 of DMSO:PEG400:H20. (Vehicle solution) and was administered into mice through the tail vein. The animals are warmed under a heat lamp for approximately 20 minutes prior to treatment to dilate their tail vein. […] After drug administration, the animals were euthanized via CO2 inhalation at different timepoints: […], […], 2 h, 6 h, 16 h. Animals were immediately bleed after exposure to CO2 via cardiac puncture (1 ml BD syringe+27 G ⅝ needle).
The samples for HPLC analysis were prepared according to the following procedure: • Blood cells were separated from serum by centrifugation. • To 400 μl of serum were added 80 μl of a 10 μM solution of an internal standard and 520 μl of acetonitrile. Precipitation occurred. • The mixture was vortexed for 3 minutes and then placed under ultrasound for 30 minutes. • The solid particles were filtered off or were separated by centrifugation. • The filtrate was dried under an argon flow to dryness.

SMILES	Activity (words, overall) [1]	IC50 (nM) Reporter (AR [2])	Inhibitory activity on AR in reporter system (AR [2])	IC50 (nM) PSA (AR [3])	Agonistic activity, secreted PSA (AR [4])	fold induction at 0.1 µM (AR [4])	fold induction at 1 µM (AR [4])	fold induction at 10 µM (AR [4])	Agonistic activity on AR, reporter (AR [5])	fold induction at 0.1 µM (AR [5])	fold induction at 1 µM (AR [5])	fold induction at 10 µM (AR [5])	other results
N#Cc1ccc(N2C(=S)N(c3ccc(C#N)c(C(F)(F)F)c3)C(=O)C23CCCC3)cc1 [RD54, 4-[1-(4-cyanophenyl)-4-oxo-2-thioxo-1,3-diazaspiro[4.4]non-3-yl]-2-trifluoromethylbenzonitrile]	–	–	–	–	–	–	–	–	–	–	–	–	Indication of agonism [1]: could act as an agonist; IC50 (AR [2]): 469 nM
Cc1ccc(N2C(=S)N(c3ccc(C#N)c(Cl)c3)C(=O)C2(C)C)cc1 [RD72]	very poor activity	–	–	–	–	–	–	–	–	–	–	–	–
CN1C(=S)N(c2ccc(C#N)c(C(F)(F)F)c2)C(=O)C12CCC2 [RD73, 4-(5-methyl-8-oxo-6-thioxo-5,7-diazaspiro[3.4]oct-7-yl)-2-trifluoromethylbenzonitrile, reference compound]	–	No	no inhibitory activities	No	stimulated PSA expression	6.25	17.9	25.6	strongly activated AR	14.9	19.4	35.2	–
CN1C(=O)N(c2ccc(C#N)c(C(F)(F)F)c2)C(=O)C12CCC2 [RD74, 4-(5-methyl-6,8-dioxo-5,7-diazaspiro[3.4]oct-7-yl)-2-trifluoromethylbenzonitrile, reference compound]	–	No	no inhibitory activities	No	stimulated PSA expression	7.5	15.2	23.8	strongly activated AR	11.4	14.3	30.6	–
CN1C(=S)N(c2ccc(C#N)c(C(F)(F)F)c2)C(=O)C12CCCC2 [RD75, 4-(1-methyl-4-oxo-2-thioxo-1,3-diazaspiro[4.4]non-3-yl)-2-trifluoromethylbenzonitrile, reference compound]	–	No	no inhibitory activities	No	stimulated PSA expression	8.13	18.2	17.5	strongly activated AR	17	16.6	33.8	–
Cc1ccc(N2C(=S)N(c3ccc(C#N)c(I)c3)C(=O)C2(C)C)cc1 [RD100]	good activity	–	–	–	–	–	–	–	–	–	–	–	–
CNC(=O)CCCc1ccc(N2C(=S)N(c3ccc(C#N)c(C(F)(F)F)c3)C(=O)C23CCC3)cc1 [RD131, 4-{4-[7-(4-Cyano-3-trifluoromethylphenyl)-8-oxo-6-thioxo-5,7-diaza-spiro[3.4]oct-5-yl]phenyl}-N-methyl-butyramide]	particularly advantageous	–	–	–	–	–	–	–	–	–	–	–	IC50 (AR [2]): 92 nM; IC50 compared with bicalutamide (FIG. 15) (AR [2]; assay not specified): much lower than the IC50 for bicalutamide; Rank order, most active to least active, relative PSA level (FIG. 4) (AR [3]; 500 nM): RD138>RD131>RD37>RD133>RD134>RD137>RD138>RD135>bicalutamide; Decrease in PSA level of LNCaP-AR cells, comparison (FIG. 4) (AR [3]; at concentrations of 1000 nM): greater decrease in PSA level of LNCaP-AR cells than RD133, RD134, and RD138; PSA level, LN/AR cell line, comparison (AR [3]; for a given dose / concentration): less than the PSA level upon exposure to RD128 and RD129; PSA levels of LN-AR cells (FIG. 14) (AR [3]; various doses): PSA levels decreased; Pharmacokinetic behavior, residence time in blood ([6]; mice): metabolize fast; Css, 10 mg/kg [μM] ([6]; steady-state concentration in mice plasma, 10 mg/kg): 0.39 µM; Css, 25 mg/kg [μM] ([6]; steady-state concentration in mice plasma, 25 mg/kg): 0.43 µM; Css, 50 mg/kg [μM] ([6]; steady-state concentration in mice plasma, 50 mg/kg): 0.40 µM
CC1(C)C(=O)N(c2ccc(C#N)c(C(F)(F)F)c2)C(=S)N1CCCCO [RU 59063, 4-[3-(4-hydroxybutyl)-4,4-dimethyl-5-oxo-2-thioxoimidazolidin-1-yl]-2-trifluoromethylbenzonitrile, reference compound]	–	No(*)	–	No	stimulated PSA expression	6.88	11.5	21.5	strongly activated AR	11	20.8	34.6	–
